This note sets out measurements from patent US5872115A, “2-ureido-benzamide derivatives” (Grelan Pharmaceutical Co. Ltd., priority 1995, dated 1999).

In one data set the test system is ACAT of HepG2 microsome. Briefly: In-vitro test using Hep G2 microsome (ACAT inhibition). The class given is biochemical, human. Here is the method:
(1) In-vitro Test Using Hep G2 Microsome
ACAT enzyme fraction was prepared from microsome of human derived hepatoma Hep G2 cell according to Sandra's method [Journal of Lipid Research, 27, 875 (1986)].
Microsome was suspended at a concentration of 200 μg protein/20 μl in 0.1M phosphate buffer solution (pH7.4) and the suspension was preincubated at 37° C. for 5 minutes after addition of 10 μl of each test compound dissolved in 0.1M phosphate buffer solution containing bovine serum albmin (BSA). Then, the reaction was initiated by the addition of 5 nmoles of labeled [^14 C]-oleoyl-CoA dissolved in 20 μl of the said phosphate buffer solution containing BSA and the reaction was stopped by the addition of 20 μl of 2N HCl after 10 minutes. [^14 C] cholesterol-oleate formed was separated by thin-layer chromatography and the radioactivity was counted with liquid scintillation counter.
(§1) ACAT inhibitory activities of the test compounds were shown as IC50 values.

In another data set the target is T1, ACAT of THP-1 cells (Homo sapiens, UniProt P35610).
T1 construct: differentiated into macrophage-like cells by phorbol ester; endogenous in cells; host or cells: THP-1 (human leukemia), intact cells differentiated by phorbol ester
T1 sequence (P35610 1-550): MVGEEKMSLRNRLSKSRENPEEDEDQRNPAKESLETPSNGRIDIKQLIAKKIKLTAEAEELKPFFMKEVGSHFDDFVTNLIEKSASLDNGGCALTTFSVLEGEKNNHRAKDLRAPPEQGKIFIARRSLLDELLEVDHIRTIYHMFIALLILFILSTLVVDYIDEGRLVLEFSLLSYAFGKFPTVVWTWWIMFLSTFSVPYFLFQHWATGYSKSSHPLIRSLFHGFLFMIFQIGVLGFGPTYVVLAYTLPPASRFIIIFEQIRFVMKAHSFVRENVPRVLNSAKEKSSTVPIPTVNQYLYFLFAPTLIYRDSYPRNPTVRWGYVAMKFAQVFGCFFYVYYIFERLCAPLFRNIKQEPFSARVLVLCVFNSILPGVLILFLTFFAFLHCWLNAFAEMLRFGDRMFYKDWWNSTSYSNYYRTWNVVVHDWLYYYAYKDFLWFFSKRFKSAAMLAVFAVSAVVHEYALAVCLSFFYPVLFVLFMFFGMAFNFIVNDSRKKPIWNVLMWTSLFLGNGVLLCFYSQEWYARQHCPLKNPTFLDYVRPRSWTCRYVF
The data set is described as follows: In-vitro test using THP-1 intact cell (ACAT inhibition). As to conditions: read-out: IC50 THP1 (intact cell). The data set is classed as cell-based. The procedure: (2) In-vitro Test Using THP-1 Intact Cell
About 2 million cells of human leukemia cell line, THP-1 were seeded in a well with 2 ml of medium and differentiated into macrophage-like cells by phorbol ester. Then, the cells were washed with phosphate-buffered saline (PBS) solution and the medium was replaced by fresh medium supplemented with 10% of lipoprotein-deficient serum. After the addition of each test compound dissolved in dimethyl sulfoxide and 100 μg protein-containing human low density lipoprotein (LDL), the reaction was initiated by the addition of 10 nmoles of labeled [^14 C]oleic acid and 10 nmoles of oleic acid complexed with BSA in PBS solution. After 22 hours, the reaction was stopped by removal the medium and CHCl3 -MeOH (2:1) were added to the cell suspension in order to extract lipids.
Intracellular [^14 C] cholesterol-oleate formed was separated by thin-layer chromatography and the radioactivity was counted with lipid scintillation counter.
as §1

A short description of data set [1]: Acute toxicity, male ICR strain mouse. The class given is in vivo. The settings on record: 1000 mg/kg orally, seven days after administration. The procedure: (1) Acute toxicity: Nine compounds (Example Nos. 1, 2, 5, 6, 12, 19, 28, 31 and 45) were tested by using male ICR strain mouse weighing 23.0±0.7 g.
The target in data set [2] is T2, THP-1 microsomal ACAT (Homo sapiens, UniProt P35610).
T2 construct: ACAT enzyme fraction was prepared from microsome of human leukemia THP-1 cell; endogenous in cells; host or cells: THP-1 (human leukemia), microsomes
T2 sequence (P35610 1-550): T1 sequence (P35610 1-550)
The data set is described as follows: In vitro test using THP-1 microsome (ACAT inhibition). The settings on record: THP-1 microsome; read-out: IC50 THP1 microsome. The data set is classed as biochemical.
Protocol: (4) In Vitro Test Using THP-1 Microsome
Then, the reaction was initiated by the addition of 5 nmoles of labeled [^14 C] oleoyl-CoA dissolved in 20 μl of said phosphate buffer solution containing BSA and the reaction was stopped by the addition of 20 μl of 2N HCl after 10 minutes. [^14 C] cholesterol-oleate formed was separated by thin-layer chromatography and the radioactivity was counted with liquid scintillation counter.

The target of data set [3] is T2, THP-1 microsomal ACAT. Briefly: Bioavailability assessment of ACAT inhibitors by their ex vivo activity (serum of dosed mice on THP-1 microsomal ACAT). The class given is in vivo. As to conditions: female mice, 30 mg/kg per os, 1% CMC-Na 0.2% Tween 80; maximum inhibition by serum. The procedure: (5) Bioavailability Assessment of ACAT Inhibitors by Their <<ex vivo>> Activity
[…] Blood samples were collected 0.5, 1, 1.5, 2, 6 hour postdose. Serum were harvested after gentle centrifugation and stored at -20.
The following day, 10 μl serum were preincubated at 37 for 5 minutes with 20 μl of THP-1 microsomal ACAT and then incubated 10 minutes with 20 μl of radiolabeled oleoyl-CoA as described above in method (4). The serum is used instead of the drug solution.
ACAT inhibitory activities of the test compounds were shown as maximum inhibition percentages (Imax).

For `CCCCNC(=O)Nc1ccccc1C(=O)NCC1CCN(C(c2ccccc2)c2ccccc2)CC1` [Example 2, 2-(N'-n-Butylureido)-N-[(1-diphenylmethylpiperidin-4-yl)methyl]benzamide], the IC50 (in general, the concentration at which inhibition is half-maximal) stood at 1000 nM in the data set with ACAT of HepG2 microsome and 100 nM at ACAT of THP-1 cells. Besides, the “macroscopic changes on any organs at autopsy” value (“macroscopic changes” below) in data set [1] is recorded as “no macroscopic changes were observed”.
As to `CCCCCNC(=O)Nc1ccccc1C(=O)NCC1CCN(C(c2ccccc2)c2ccccc2)CC1` [Example 3, 2-(N'-n-Pentylureido)-N-[(1-diphenylmethylpiperidin-4-yl)methyl]benzamide], the IC50 in the data set on ACAT of HepG2 microsome stood at 900 nM; on ACAT of THP-1 cells, 100 nM.
For `CCCCCCNC(=O)Nc1ccccc1C(=O)NCC1CCN(C(c2ccccc2)c2ccccc2)CC1` [Example 4, 2-(N'-n-Hexylureido)-N-[(1-diphenylmethylpiperidin-4-yl)methyl]benzamide], the IC50 with ACAT of HepG2 microsome came to 900 nM; at ACAT of THP-1 cells, 90 nM.
With `CCCCCCCCNC(=O)Nc1ccccc1C(=O)NCC1CCN(C(c2ccccc2)c2ccccc2)CC1` [Example 6, 2-(N'-n-Octylureido)-N-[(1-diphenylmethylpiperidin-4-yl)methyl]benzamide], the IC50 in the data set on ACAT of HepG2 microsome came out at 1600 nM; on ACAT of THP-1 cells, 50 nM. The “macroscopic changes” value in data set [1] is “no macroscopic changes were observed”.
Turning to `CCCCCCCCCCNC(=O)Nc1ccccc1C(=O)NC1CCN(C(c2ccccc2)c2ccccc2)CC1` [Example 12, 2-(N'-n-Decylureido)-N-(1-diphenylmethylpiperidin-4-yl)benzamide], the IC50 with ACAT of HepG2 microsome came out at 8000 nM; at ACAT of THP-1 cells, 700 nM. Moreover, the “macroscopic changes” value in data set [1] is recorded as “no macroscopic changes were observed”.
As to `CCCCCCCNC(=O)Nc1ccc(O)cc1C(=O)NCCC(c1ccccc1)c1ccccc1` [Example 19, 2-(N'-n-Heptylureido)-5-hydroxy-N-(3,3-diphenylpropyl)benzamide], the IC50 worked out at 3600 nM in the data set on ACAT of HepG2 microsome and 100 nM at ACAT of THP-1 cells. Besides, the “macroscopic changes” value in data set [1] is reported as “no macroscopic changes were observed”.
As for `CCCCCCCNC(=O)Nc1ccccc1C(=O)NCCC1CCN(C(c2ccccc2)c2ccccc2)CC1` [Example 28, 2-(N'-n-Heptylureido)-N-[2-(1-diphenylmethylpiperidin-4-yl)ethyl]benzamide], the values for the IC50 with ACAT of HepG2 microsome and on ACAT of THP-1 cells were 1200 nM and 100 nM, respectively. The “macroscopic changes” value in data set [1] was “no macroscopic changes were observed”.
For `CCCCCNC(=O)Nc1ccccc1C(=O)NCCC1CCN(C(c2ccccc2)c2ccccc2)CC1` [Example 29, 2-(N'-n-Pentylureido)-N-[2-(1-diphenylmethylpiperidin-4-yl)ethyl]benzamide], the IC50 is 1600 nM with ACAT of HepG2 microsome and 200 nM on ACAT of THP-1 cells.
On to `CCCCCCNC(=O)Nc1ccccc1C(=O)NCCC1CCN(C(c2ccccc2)c2ccccc2)CC1` [Example 30, 2-(N'-n-Hexylureido)-N-[2-(1-diphenylmethylpiperidin-4-yl)ethyl]benzamide], for which the results for the IC50 in the data set on ACAT of HepG2 microsome and on ACAT of THP-1 cells were 1200 nM and 200 nM, respectively.
In the case of `CCCCCCCNC(=O)Nc1ccc(N(C)C)cc1C(=O)NC1CCN(C(c2ccccc2)c2ccccc2)CC1` [Example 31, 2-(N'-n-Heptylureido)-5-dimethylamino-N-(1-diphenylmethylpiperidin-4-yl)-benzamide], the results for the concentration for half-maximal inhibition (IC50) in the data set with ACAT of HepG2 microsome and at ACAT of THP-1 cells were 800 nM and 200 nM, respectively. The “macroscopic changes” value in data set [1] is on record as “no macroscopic changes were observed”.
The matching figures for `CCCCCCCNC(=O)Nc1ccccc1C(=O)NC1CCN(C(c2ccccc2)c2ccccc2)CC1` [Example 45, 2-(N'-n-Heptylureido)-N-(1-diphenylmethylpiperidin-4-yl)benzamide]: 2800 nM, 800 nM and “no macroscopic changes were observed”.
As for `CCCCCCCNC(=O)Nc1ccc(-n2cccn2)cc1C(=O)NCC1CCN(C(c2ccccc2)c2ccccc2)CC1` [Example 84, 2-(N'-n-Heptylureido)-5-(pyrazol-1-yl)-N-[(1-diphenylmethylpiperidin-4-yl)-methyl]-benzamide], the IC50 on THP-1 microsomal ACAT [2] was found to be 100 nM. In addition, the “Imax Ex vivo” value at THP-1 microsomal ACAT [3] was determined as 5.75%.
Turning to `CCCCCCCNC(=O)Nc1ccc(N2CCCC2)cc1C(=O)NCC1CCN(C(c2ccccc2)c2ccccc2)CC1` [Example 85, 2-(N'-n-Heptylureido)-5-(pyrrolidin-1-yl)-N-[(1-diphenylmethylpiperidin-4-yl)methyl]-benzamide], on THP-1 microsomal ACAT [2], the IC50 was 60 nM. Also, the “Imax Ex vivo” value at THP-1 microsomal ACAT [3] turned out to be 11.33%.
The like results for `CCCCCCCNC(=O)Nc1ccc(N(C)C(C)=O)cc1C(=O)NCC1CCN(C(c2ccccc2)c2ccccc2)CC1` [Example 91, 5-(N-Acetyl-N-methyl)amino-2-(N'-n-heptylureido)-N-[(1-diphenylmethylpiperidin-4-yl)-methyl]benzamide] were, in that order, 80 nM and 61.47%.
As to `CCCCCCCNC(=O)Nc1ccc(N(C)C)cc1C(=O)NCC1CCN(C(c2ccc(F)cc2)c2ccc(F)cc2)CC1` [Example 93, 2-(N'-n-Heptylureido)-5-dimethylamino-N-[[1-bis(4-fluorophenyl)methylpiperidin-4-yl]-methyl]benzamide], at THP-1 microsomal ACAT [2], the IC50 stood at 40 nM. Besides, on THP-1 microsomal ACAT [3], the “Imax Ex vivo” value came out at 24.17%.
The like results for `CCCCCCCNC(=O)Nc1ccc(N(C)C)cc1C(=O)NCC1CCN(C(c2ccc(OC)cc2)c2ccc(OC)cc2)CC1` [Example 94, 2-(N'-n-Heptylureido)-5-dimethylamino-N-[[1-bis(4-methoxyphenyl)methylpiperidin-4yl]methyl]benzamide] were, in that order, 100 nM and 28.35%.
`CCCCCCCNC(=O)Nc1ccc(N(C)C)cc1C(=O)NCC1CCN(Cc2ccccc2-c2ccccc2)CC1` [Example 96, 2-(N'-n-Heptylureido)-5-dimethylamino-N-[1-(2-biphenylmethylpiperidin-4-yl)methyl]-benzamide]: the IC50 on THP-1 microsomal ACAT [2] was 80 nM. Further, the “Imax Ex vivo” value at THP-1 microsomal ACAT [3] was 20.45%.
As to `CCCCCNC(=O)Nc1ccc(N(C)C)cc1C(=O)NCC1CCN(C(c2ccccc2)c2ccccc2)CC1` [Example 100, 5-Dimethylamino-2-(N'-n-pentylureido)-N-[(1-diphenylmethylpiperidin-4-yl)methyl]benzamide], the IC50 at THP-1 microsomal ACAT [2] came to 40 nM. In addition, the “Imax Ex vivo” value at THP-1 microsomal ACAT [3] amounted to 39.01%.
Consider `CCCCNC(=O)Nc1ccc(S(C)(=O)=O)cc1C(=O)NCC1CCN(C(c2ccccc2)c2ccccc2)CC1` [Example 111 (b), 2-(N'-n-butylureido)-5-methylsulfonyl-N-[(1-diphenylmethylpiperidin-4-yl)-methyl]benzamide], for which the IC50 at THP-1 microsomal ACAT [2] stood at 90 nM. The “Imax Ex vivo” value at THP-1 microsomal ACAT [3] turned out to be 63.56%.
